Measured values from paper PMC2625337, “Flexible modulation of agonist efficacy at the human A3 adenosine receptor by the imidazoquinoline allosteric enhancer LUF6000” (BMC Pharmacology, 2008).

Experiments:
Assay type in all cases: biochemical
[1] = target: T1, human A1 adenosine receptor (A1 AR) (Homo sapiens, UniProt P30542); details: high-efficacy agonist
T1 construct: gene ADORA1; full-length receptor stably expressed in CHO cells, membrane preparation
T1 sequence (P30542 1-326): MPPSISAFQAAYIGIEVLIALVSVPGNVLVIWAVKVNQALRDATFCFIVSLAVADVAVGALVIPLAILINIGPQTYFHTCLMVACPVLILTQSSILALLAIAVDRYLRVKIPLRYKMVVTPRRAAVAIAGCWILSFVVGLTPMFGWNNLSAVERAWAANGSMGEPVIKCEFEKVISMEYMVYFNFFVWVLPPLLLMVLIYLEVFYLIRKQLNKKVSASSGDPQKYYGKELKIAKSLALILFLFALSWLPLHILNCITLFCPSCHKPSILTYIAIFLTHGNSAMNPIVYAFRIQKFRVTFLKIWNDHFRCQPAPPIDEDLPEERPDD

[2] = target: T2, human A3 adenosine receptor (A3 AR) (Homo sapiens, UniProt P0DMS8); test: […]GTPgammaS binding, CHO membranes
T2 construct: gene ADORA3; full-length receptor stably expressed in CHO cells, membrane preparation
T2 sequence (P0DMS8 1-318): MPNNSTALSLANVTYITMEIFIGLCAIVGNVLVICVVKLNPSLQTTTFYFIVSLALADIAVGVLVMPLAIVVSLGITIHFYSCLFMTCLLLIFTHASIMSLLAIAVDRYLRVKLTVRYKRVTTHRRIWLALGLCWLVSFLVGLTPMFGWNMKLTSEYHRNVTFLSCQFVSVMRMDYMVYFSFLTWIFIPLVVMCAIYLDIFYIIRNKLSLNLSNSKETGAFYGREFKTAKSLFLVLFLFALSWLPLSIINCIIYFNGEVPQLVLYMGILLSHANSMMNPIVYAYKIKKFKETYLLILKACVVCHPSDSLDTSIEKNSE

[3] = target: T2, human A3 adenosine receptor (A3 AR); test: […]GTPgammaS binding, CHO membranes; details: alone, no LUF6000; antagonist
[4] = target: T2, human A3 adenosine receptor (A3 AR); test: […]GTPgammaS binding, CHO membranes; details: agonist alone, no LUF6000

## OC[C@H]1O[C@@H](n2cnc3c(NC4CCCC4)nc(Cl)nc32)[C@H](O)[C@@H]1O [CCPA, 2-chloro-N^6-cyclopentyladenosine]
[1]
  [35S]GTPgammaS binding, CHO membranes: high-efficacy agonists CPA and CCPA or a low efficacy agonist MRS541 to activate the A1

## CNC(=O)[C@H]1O[C@@H](n2cnc3c(NCc4cccc(I)c4)ncnc32)[C@H](O)[C@@H]1O [IB-MECA]
[2]; agonist
  [35S]GTPgammaS binding, CHO membranes: IB-MECA was almost as efficacious as Cl-IB-MECA

## Clc1ccc(Nc2nc3ccccc3c3nc(C4CCCCC4)[nH]c23)cc1Cl [LUF6000, N-(3,4-dichloro-phenyl)-2-cyclohexyl-1H-imidazo [4,5-c]quinolin-4-amine]
[2]; allosteric enhancer, tested at 0.1-10 µM with agonists
  [35S]GTPgammaS binding, CHO membranes: LUF6000 showed a flexible modulatory effect of efficacy

## OC[C@H]1O[C@@H](n2cnc3c(NCc4cccc(I)c4)nc(Cl)nc32)[C@H](O)[C@@H]1O [MRS542, 2-chloro-N^6-(3-iodobenzyl)adenosine]
[3]
  Emax (%): 5.6 ± 2.5%

## O=c1[nH]cnc2c1ncn2[C@@H]1O[C@H](CO)[C@@H](O)[C@H]1O [inosine]
[4]
  Emax (% of NECA): < 10%
